According to US10160762B2, “6-alkyl dihydropyrazolopyrimidinone compounds as PDE2 inhibitors” (Merck Sharp & Dohme Corp., priority 2015, dated 2018):

The compounds below were run against T1, human PDE2A1 (Homo sapiens, UniProt O00408) (assay: IMAP FP PDE assay, human PDE2A1). Details: Lab B; read-out: Human PDE2 Ki (nM) Lab B.
T1 construct: GST; purchased BPS Bioscience (San Diego, Calif.) 60020; host or cells: insect cells
Assay type: biochemical
Summary of the method: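 GST-tagged human PDE2A1 from insect cells; substrate 50 nM FAM-cAMP containing 1000 nM cGMP in Tris pH 7.2/MgCl2/DTT buffer, enzyme giving 20% conversion. 60 min at room temperature, IMAP binding reagent, fluorescence polarization read. Apparent Ki from FP readings using apparent KM 10,000 nM; ten-point 3-fold titrations.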

T1 sequence (O00408 1-920 isoform O00408-2): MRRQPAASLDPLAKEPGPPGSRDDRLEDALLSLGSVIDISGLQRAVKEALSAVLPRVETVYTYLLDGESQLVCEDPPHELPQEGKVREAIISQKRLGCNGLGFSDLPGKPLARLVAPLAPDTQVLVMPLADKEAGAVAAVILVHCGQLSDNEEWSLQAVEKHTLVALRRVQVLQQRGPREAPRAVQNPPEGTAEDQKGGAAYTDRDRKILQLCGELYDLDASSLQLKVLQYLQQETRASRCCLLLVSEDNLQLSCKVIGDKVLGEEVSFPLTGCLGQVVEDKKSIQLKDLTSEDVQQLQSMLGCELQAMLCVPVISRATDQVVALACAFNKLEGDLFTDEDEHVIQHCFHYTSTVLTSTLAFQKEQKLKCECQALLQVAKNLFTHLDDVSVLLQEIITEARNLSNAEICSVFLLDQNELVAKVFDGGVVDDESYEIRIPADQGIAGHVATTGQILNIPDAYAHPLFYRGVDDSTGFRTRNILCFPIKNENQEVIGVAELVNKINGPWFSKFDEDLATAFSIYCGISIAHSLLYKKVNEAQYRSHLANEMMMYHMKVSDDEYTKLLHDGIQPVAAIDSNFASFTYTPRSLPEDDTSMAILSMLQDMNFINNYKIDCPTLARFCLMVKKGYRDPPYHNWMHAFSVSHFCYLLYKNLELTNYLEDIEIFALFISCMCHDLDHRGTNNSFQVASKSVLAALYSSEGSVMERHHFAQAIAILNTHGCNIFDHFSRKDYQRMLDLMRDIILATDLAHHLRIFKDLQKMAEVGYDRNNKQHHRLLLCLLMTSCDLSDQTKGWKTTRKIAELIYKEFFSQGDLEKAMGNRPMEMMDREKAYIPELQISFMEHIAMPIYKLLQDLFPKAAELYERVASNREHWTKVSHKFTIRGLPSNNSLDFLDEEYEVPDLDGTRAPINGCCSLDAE

Ki [nM]	Compound
8.2	Cc1nc2c(c(CO)nn2C2(c3ccc(C(F)(F)F)cc3)CC2)c(=O)[nH]1 [Example 142, 3-(Hydroxymethyl)-6-methyl-1-(1-(4-(trifluoromethyl)phenyl)cyclopropyl)-1H-pyrazolo[3,4-d]pyrimidin-4(5H)-one]
9.5	Cc1nc2c(c(C(F)F)nn2C2(c3ccc(C(F)(F)F)cc3)COC2)c(=O)[nH]1 [Example 163, 3-(Difluoromethyl)-6-methyl-1-(3-(4-(trifluoromethyl)phenyl)oxetan-3-yl)-1H-pyrazolo[3,4-d]pyrimidin-4(5H)-one]
8.2	Cc1nc2c(c(C(F)F)nn2C(C)c2ccc(C3(C(F)(F)F)CC3)cc2)c(=O)[nH]1 (stereo not drawn) [Example 164, 3-(Difluoromethyl)-6-methyl-1-(1-(4-(1-(trifluoromethyl)cyclopropyl)phenyl)ethyl)-1H-pyrazolo[3,4-d]pyrimidin-4(5H)-one]
6.3	Cc1nc2c(c(C(F)F)nn2C(C)c2ccc(C(F)(F)C(F)(F)F)cc2)c(=O)[nH]1 (stereo not drawn) [Example 165, 3-(Difluoromethyl)-6-methyl-1-(1-(4-(perfluoroethyl)phenyl)ethyl)-1H-pyrazolo[3,4-d]pyrimidin-4(5H)-one]
~567	Cc1nc2c(c(CC(C)(C)O)nn2C(C)c2ccc(C(F)(F)F)cc2)c(=O)[nH]1 (stereo not drawn) [Example 247, 3-(2-Hydroxy-2-methylpropyl)-6-methyl-1-(1-(4-(trifluoromethyl)phenyl)ethyl)-1H-pyrazolo[3,4-d]pyrimidin-4(5H)-one]
42	Cc1nc2c(c(N)nn2C(C)c2ccc(C(F)(F)F)cc2)c(=O)[nH]1 (stereo not drawn) [Example 258, 3-Amino-6-methyl-1-(1-(4-(trifluoromethyl)phenyl)ethyl)-H-pyrazolo[3,4-d]pyrimidin-4(5H)-one]
~1800	Cc1nc2c(c(NS(C)(=O)=O)nn2C(C)c2ccc(C(F)(F)F)cc2)c(=O)[nH]1 (stereo not drawn) [Example 261, N-(6-Methyl-4-oxo-1-(1 (4-(trifluoromethyl)phenyl)ethyl)-4,5-dihydro-1H-pyrazolo[3,4-d]pyrimidin-3-yl)methanesulfonamide]
388	Cc1nc2c(c(CC3COC3)nn2C(C)c2ccc(C(F)(F)F)cc2)c(=O)[nH]1 (stereo not drawn) [Example 289, 6-Methyl-3-(oxetan-3-ylmethyl)-1-(1-(4-(trifluoromethyl)phenyl)ethyl)-1H-pyrazolo[3,4-d]pyrimidin-4(5H)-one]
42	CC(=O)c1nn([C@@H](C)c2ccc(C(F)(F)F)cc2)c2nc(C)[nH]c(=O)c12 [Example 322, (S)-3-Acetyl-6-methyl-1-(1-(4-(trifluoromethyl)phenyl)ethyl)-1,5-dihydro-4H-pyrazolo[3,4-d]pyrimidin-4-one]
2080	Cc1nc2c(c(O)nn2[C@@H](C)c2ccc(C(F)(F)F)cc2)c(=O)[nH]1 [Example 329, (S)-3-Hydroxy-6-methyl-1-(1-(4-(trifluoromethyl)phenyl)ethyl)-1,5-dihydro-4H-pyrazolo[3,4-d]pyrimidin-4-one]

Compound	Ki [nM]
Cc1nc2c(c(C(=O)O)nn2[C@@H](C)c2ccc(C(F)(F)F)cc2)c(=O)[nH]1 [Example 323, (S)-6-Methyl-4-oxo-1-(1-(4-(trifluoromethyl)phenyl)ethyl)-4,5-dihydro-1H-pyrazolo[3,4-d]pyrimidine-3-carboxylic acid]	798

Each compound was assayed against T2, Rhesus PDE2A3 (Macaca mulatta, UniProt B3VTJ2) (assay: PDE2 fluorescence polarization (IMAP FP) inhibition assay, rhesus PDE2A3). Details: Lab B; read-out: Rhesus PDE2 Ki (nM) Lab B.
T2 construct: made in house; host or cells: AD293 cells, transient transfection; supernatant of sonicated lysate
T2 sequence (B3VTJ2 1-941): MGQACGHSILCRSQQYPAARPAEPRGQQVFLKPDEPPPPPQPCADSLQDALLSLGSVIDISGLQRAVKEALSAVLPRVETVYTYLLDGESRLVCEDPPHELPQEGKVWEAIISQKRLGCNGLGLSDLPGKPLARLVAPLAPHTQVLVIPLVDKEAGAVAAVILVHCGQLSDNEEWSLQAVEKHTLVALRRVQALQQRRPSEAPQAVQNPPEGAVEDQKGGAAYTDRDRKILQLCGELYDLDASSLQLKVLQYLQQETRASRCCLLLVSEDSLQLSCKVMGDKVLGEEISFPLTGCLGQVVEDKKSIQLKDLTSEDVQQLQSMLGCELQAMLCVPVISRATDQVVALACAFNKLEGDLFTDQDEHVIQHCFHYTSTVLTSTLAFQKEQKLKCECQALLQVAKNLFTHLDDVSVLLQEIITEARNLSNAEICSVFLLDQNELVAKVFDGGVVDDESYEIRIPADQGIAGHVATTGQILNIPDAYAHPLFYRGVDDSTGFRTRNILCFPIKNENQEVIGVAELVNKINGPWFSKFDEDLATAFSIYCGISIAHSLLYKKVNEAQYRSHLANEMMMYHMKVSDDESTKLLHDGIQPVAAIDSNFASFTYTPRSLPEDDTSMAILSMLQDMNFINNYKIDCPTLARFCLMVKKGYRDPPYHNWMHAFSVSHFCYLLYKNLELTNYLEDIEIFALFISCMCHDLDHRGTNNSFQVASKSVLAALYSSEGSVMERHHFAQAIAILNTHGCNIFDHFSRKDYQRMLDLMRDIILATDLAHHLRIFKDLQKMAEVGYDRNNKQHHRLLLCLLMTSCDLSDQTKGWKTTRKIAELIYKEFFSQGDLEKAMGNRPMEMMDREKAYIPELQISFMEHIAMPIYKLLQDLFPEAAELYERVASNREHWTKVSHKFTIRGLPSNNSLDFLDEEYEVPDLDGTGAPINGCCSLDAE
Assay type: biochemical, rhesus macaque
Description: The activity of the compounds in accordance with the present invention as PDE2 inhibitors may be readily determined using a fluorescence polarization (FP) methodology (Huang, W., et al., J. Biomol Screen, 2002, 7: 215).
The PDE2 inhibitory activity of the compounds of the present invention was determined in accordance with the following experimental method. Rhesus PDE2A3 was amplified from rhesus macaque brain cDNA (Biochain Institute, Hayward, Calif.) using primers based on human PDE2A sequence (accession NM_002599.3) where the forward primer containing a Kozak consensus was 5′-[…]-3′ and the reverse primer was 5′-[…]-3′. Amplification with Easy-A High-Fidelity PCR cloning enzyme (Stratagene, La Jolla, Calif.) was 95° C. for 2 minutes followed by thirty three cycles of 95° C. for 40 seconds, 52° C. for 30 seconds, and 72° C. for 2 minutes 48 seconds. Final extension was 72° C. for 7 minutes. The PCR product was TA cloned into pcDNA3.3-TOPO (Invitrogen, Carlsbad, Calif.) according to standard protocol. A consensus sequence was developed from multiple clones and then deposited into GenBank (EU812167). AD293 cells (Stratagene, La Jolla, Calif.) with 70-80% confluency were transiently transfected with rhesus PDE2A3/pcDNA3.3-TOPO using Lipofectamine 2000 according to manufacturer specifications (Invitrogen, Carlsbad, Calif.). Cells were harvested 48 hours post-transfection and lysed by sonication (setting 3, 10×5 sec pulses) in a buffer containing 20 mM HEPES pH 7.4, 1 mM EDTA and Complete Protease Inhibitor Cocktail Tablets (Roche, Indianapolis, Ind.). Lysate was collected by centrifugation at 75,000×g for 20 minutes at 4° C. and supernatant utilized for evaluation of PDE2 activity. The fluorescence polarization assay for cyclic nucleotide phosphodiesterases was performed using an IMAP® FP kit supplied by Molecular Devices, Sunnyvale, Calif. (product #R8139). […] Assays were performed at room temperature in 384-well microtiter plates with an incubation volume of 20.2 μL. Solutions of test compounds were prepared in DMSO and serially diluted with DMSO to yield 8 μL of each of 10 solutions differing by 3-fold in concentration, at 32 serial dilutions per plate. […] 0% of inhibition is determined by using DMSO (1% final concentrations).
A Labcyte Echo 555 (Labcyte, Sunnyvale, Calif.) is used to dispense 200 nL from each well of the titration plate to the 384 well assay plate. Ten microliters of a solution of enzyme (1/2000 final dilution from aliquots; sufficient to produce 20% substrate conversion) was added to the assay plate. Next 10 uL of a separate solution of the substrate FAM-labeled cAMP (50 nM final concentration product # R7506 from Molecular Devices) and the activator cGMP (1 uM final concentration), prepared in the assay buffer (10 mM Tris HCl, pH 7.2, 10 mM MgCl2, 0.05% NaN3 0.01% Tween-20, and 1 mM DTT) was added to the assay plate and shaken to mix. The reaction is allowed to proceed at room temperature for 60 minutes. A binding solution is then made from the kit components, comprised of 80% Solution A, 20% Solution B and binding reagent at a volume of 1/600 the total binding solution. The enzymatic reaction is stopped by addition of 60 μL of the binding solution to each well of the assay plates and the plates are sealed and shaken for 30 seconds. The plate was incubated at room temperature for at least one hour prior to determining the fluorescence polarization (FP). The parallel and perpendicular fluorescence of each well of the plate was measured using a Tecan Genios Pro plate reader (Tecan, Switzerland) or Perkin Elmer EnVision™ plate reader (Waltham, Mass.). Fluorescence polarization (mP) was calculated from the parallel (S) and perpendicular (P) fluorescence of each sample well and the analogous values for the median control well, containing only substrate (So and Po), using the following equation: Polarization(mP)=1000*(S/So−P/Po)/(S/So+P/Po).

Ki [nM]	Compound
~2590	CC(c1ccc(C(F)(F)F)cc1)n1nc(CO)c2c(=O)[nH]c(-c3ccco3)nc21 (racemic) [Example 294, 6-Furan-2-yl-3-(hydroxymethyl)-1-{1-[4-(trifluoromethyl)phenyl]ethyl}-1,5-dihydro-4H-pyrazolo[3,4-d]pyrimidin-4-one]
> 2970	CC(c1ccc(C(F)(F)F)cc1)n1nc(CO)c2c(=O)[nH]c(-c3cnn(C)c3)nc21 (racemic) [Example 295, 3-(Hydroxymethyl)-6-(1-methyl-1H-pyrazol-4-yl)-1-{1-[4-(trifluoromethyl)phenyl]ethyl}-1,5-dihydro-4H-pyrazolo[3,4-d]pyrimidin-4-one]
160	Cc1nc2c(c(CO)nn2C(c2ccc(C(F)(F)F)cc2)C2(C)CC2)c(=O)[nH]1 (single isomer, unassigned) [Example 25, (S)- or (R)-3-(Hydroxymethyl)-6-methyl-1-((1-methylcyclopropyl)(4-(trifluoromethyl)phenyl)methyl)-1H-pyrazolo[3,4-d]pyrimidin-4(5H)-one]
6020	Cc1nc2c(c(CC(F)(F)F)nn2C(c2ccc(C(F)(F)F)cc2)C(C)(C)C)c(=O)[nH]1 (single isomer, unassigned) [Example 56, (R)- or (S)-1-(2,2-Dimethyl-1-(4-(trifluoromethyl)phenyl)propyl)-6-methyl-3-(2,2,2-trifluoroethyl)-1H-pyrazolo[3,4-d]pyrimidin-4(5H)-one]
1080	Cc1nc2c(c(CC(F)(F)F)nn2C(c2ccc(C(F)(F)F)cc2)C2(C)CC2)c(=O)[nH]1 (single isomer, unassigned) [Example 58, (R)- or (S)-6-Methyl-1-((1-methylcyclopropyl)(4-(trifluoromethyl)phenyl)methyl)-3-(2,2,2-trifluoroethyl)-1H-pyrazolo[3,4-d]pyrimidin-4(5H)-one]
330	Cc1nc2c(c(CO)nn2C(C)c2ccc(S(F)(F)(F)(F)F)cc2)c(=O)[nH]1 (single isomer, unassigned) [Example 76]
289	Cc1nc2c(c(CO)nn2C(c2ccc(C(F)(F)F)cc2)C(C)(C)C)c(=O)[nH]1 (single isomer, unassigned) [Example 82, (R)- or (S)-1-(2,2-Dimethyl-1-(4-(trifluoromethyl)phenyl)-propyl)-3-(hydroxymethyl)-6-methyl-1H-pyrazolo[3,4-d]pyrimidin-4(5H)-one]
